Cytotoxicity data for 98 compounds are collected here from ChEMBL document CHEMBL3507680, “University of Dundee, Gates Library screen for HepG2 cell viability”.

The data set can be described thus: Human HepG2 cell viability assay in 384 well format. It counts as toxicity, cell-based. The arrangement: dose 125 nL, time 70.5 hour; cytotoxicity at 70.5 h: concentration not given beside the values. The conditions noted are these: HepG2 cells, read-out: Inhibition.
Turning to `CC1CCCCN1C1CN(C(=O)c2sccc2S(N)(=O)=O)C1` (stereo not drawn), the cytotoxicity at 70.5 h was -2.85%. Consider `O=C1NCCCCC1Sc1nnc(N2CCCC2)n1C1CC1` (stereo not drawn), for which the cytotoxicity at 70.5 h was 6.7%.

Turning to `Cc1ccc(CNC(=O)c2cc(CN3CCC(O)CC3)on2)s1`, the cytotoxicity at 70.5 h was -18%. The result for `Cc1nnc(CCNC(=O)Nc2ccc(S(C)(=O)=O)cc2)[nH]1` reads 35.6%; that for `CCCn1c(C)c(CC(=O)N(C)CCOC)c2c1CC(C)(C)CC2=O`, -7.09%. The result for `COc1ncccc1NC(=O)C1CC(=O)N(Cc2ccccn2)C1` (stereo not drawn) reads 0.729%.

Turning to `O=C([C@H]1C[C@H]2OCC[C@H]2N(Cc2ccccc2F)C1)N1CCCCO1`, the cytotoxicity at 70.5 h is -7.79%.

For the compound `O=C([C@H]1C[C@H]2[C@H](CCN2Cc2cccs2)O1)N1CCOCC1`, the cytotoxicity at 70.5 h is -16.9%.

As for `CC(C)c1cc(C2CCCN2C(=O)c2cn3ccsc3n2)no1` (stereo not drawn), the cytotoxicity at 70.5 h was -5.17%. The result for `CCn1ncc(CN2CCC(O)(Cn3ccc4ncccc43)CC2)c1C` reads -1.63%. The result for `N#Cc1cccc(OCCN2CCCC2C(=O)NC2CC2)c1` (stereo not drawn) reads 4.05%; that for `O=C(NCCS(=O)(=O)N1CCN(c2ncccn2)CC1)C1CCCC1`, -5.6%; that for `Cc1nn(C2CCS(=O)(=O)C2)c(O)c1CCc1ccccc1` (stereo not drawn), -8.16%.

With `Cn1cc(S(=O)(=O)NCc2ccc(F)cc2)cn1`, the cytotoxicity at 70.5 h was -2.02%. The result for `CC(C)(C)N1CC(C(=O)N2CCN(CCn3cccc3)CC2)CC1=O` (stereo not drawn) reads -2.66%; that for `Cc1nc(C(=O)N2CC[C@@]3(C[C@H](NS(C)(=O)=O)CCO3)C2)cs1`, -7.15%; that for `CS(=O)(=O)c1ccccc1NCc1ccc(Cn2ccnc2)cc1`, -0.289%. The result for `CC(C)N(C)CCC(=O)N1CCCC(c2ccc(C(=O)O)cc2)C1` (stereo not drawn) reads -7.94%. Next, `CC(C)(C)c1nc(NS(=O)(=O)c2ccccc2F)no1`: -18.1%.

Consider `CN(CCn1ccc2ccccc21)C(=O)Cc1n[nH]c(=O)[nH]1`, for which the cytotoxicity at 70.5 h stood at 1.76%. Next, `CC(C)(C)c1ncc(C(=O)NCc2ccccc2CN2CCCC2)s1`: -6.15%; `CCNc1ncc(C(=O)N[C@H](C(N)=O)c2ccccc2)cn1`: 24%.

With `CNS(=O)(=O)c1ccccc1N1CCN(C(C)C(=O)OC)CC1` (stereo not drawn), the cytotoxicity at 70.5 h was -3.28%. The result for `COC(=O)C1CCN(C(=O)c2ccc(NS(C)(=O)=O)c(C)c2)CC1` reads -9.09%; that for `Cc1ccc(CN(CC(=O)NCC2CCOC2)c2ccc(F)cc2)o1` (stereo not drawn), -3.8%. Next, `COCCC(Cc1cccc(Br)c1)C(=O)N(C)C` (stereo not drawn): -0.534%. Next, `Cc1nc(NCc2ccc(C)o2)cc(C(=O)N2CCOCC2)n1`: -9.84%; `CCc1nc(C)c(C(=O)NCCNC(=O)Cc2cccc(F)c2)s1`: -6.24%.

For `CCc1cnc2c(c1NCc1ccc(OC)cc1)c(=O)n(C)c(=O)n2C`, the cytotoxicity at 70.5 h is 3.22%.

Consider `Cc1cccc(CN2C[C@H]3C[C@H](C(=O)NCc4cccnc4)[C@@H](C2)O3)c1`, for which the cytotoxicity at 70.5 h was 25%. The result for `c1ccc(COCC2CNCc3nccn3C2)nc1` (stereo not drawn) reads 0.439%; that for `CC(OCC1CC1)C(=O)NCc1ccc(Cn2ccnc2)cc1` (stereo not drawn), -6.63%.

Turning to `CC1CN(c2cc(CNCc3cccc4c3OCCO4)ccn2)CCO1` (stereo not drawn), the cytotoxicity at 70.5 h is -10.3%. Next, `Cc1cc(C(N)=O)c(N2C[C@@H](C)[C@@](C)(O)C2)nc1C`: -7.31%; `Cc1ccc(C(=O)N2CCC3(CCCN(c4ccc(C)nn4)C3)C2)cn1` (stereo not drawn): -10.8%. Next, `Cc1cc(S(=O)(=O)N2CCCc3ccccc32)sc1C(=O)O`: -12.2%.

With `c1cc(-c2cnccn2)cc(-c2ccn(CCN3CCCC3)n2)c1`, the cytotoxicity at 70.5 h is 12.2%.

As for `Cc1ccc(C(C(=O)NCCc2nc(C)cc(=O)[nH]2)N(C)C)cc1` (stereo not drawn), the cytotoxicity at 70.5 h is 7.05%. Next, `CN1CCN(c2ccccc2CNC(=O)Cc2ccccc2F)CC1`: -5.79%. `Nc1nccc(N2CCC(c3cc(Cc4ccccc4)n[nH]3)CC2)n1`: the cytotoxicity at 70.5 h came out at 31.5%.

In the case of `CC(=O)C1(c2ccccc2)CCN(C(=O)c2ccc3nnnn3c2)CC1`, the cytotoxicity at 70.5 h was 2.77%. The result for `NC(=O)C1CCN(C(=O)c2ccn(-c3ccc(F)cc3)n2)CC1` reads 7.95%. Regarding `c1ccc(OC[C@]23COC[C@H]2CN(C2CCOCC2)C3)nc1`, the cytotoxicity at 70.5 h was -9.47%.

As for `CCS(=O)(=O)CCN1CCN(C(C)c2cccnc2)CC1` (stereo not drawn), the cytotoxicity at 70.5 h amounted to 19.9%. As for `Cc1ccc(NC2CCN(C(=O)Cc3c(C)nn(C)c3C)CC2)nn1`, the cytotoxicity at 70.5 h is -1.21%.

For the compound `Fc1ccccc1OCCc1cc(C2CCNC2)n[nH]1` (stereo not drawn), the cytotoxicity at 70.5 h is -4.09%. Next, `CC(C)n1nc(Cn2cccn2)c2c1CN(CC1CCOC1)C2` (stereo not drawn): -4.31%. Next, `CC(C)N(C)Cc1cnc2n1CCN(C(=O)Cc1ccsc1)C2`: 3.66%; `Cc1nc(O)cc(C2CCN(Cc3cccc(F)c3F)C2)n1` (stereo not drawn): -14.5%; `c1c(CN2CCCCC2)nc2n1CCN(CC1CC1)C2`: 0.696%. Consider `N#Cc1ccccc1CN1C[C@@H]2CC[C@H](C1)N(CC1CCC1)C2=O`, for which the cytotoxicity at 70.5 h was -4.58%.

For `Cc1cc(C)n(CC2CN(CC(=O)NC3CCCC3)CCO2)n1` (stereo not drawn), the cytotoxicity at 70.5 h was determined as 18.5%. Next, `O=C(c1[nH]c2ccc(Cl)cc2c1Cl)N1CCC2(CC1)OCCO2`: -0.999%. The result for `Cc1ccc2nc(CN3CCCCC3CCN3CCOCC3)cn2c1` (stereo not drawn) reads -10.8%. Next, `CN(C)c1ncncc1NC(=O)Cc1c[nH]c2ccc(F)cc12`: -2.95%. `N#Cc1cccnc1OC1CCN(S(=O)(=O)c2c(F)cccc2F)CC1`: the cytotoxicity at 70.5 h came to 39.9%.

Take `CCOc1nnc(CN(C)CC2CCCN2c2cccnn2)s1` (stereo not drawn): the cytotoxicity at 70.5 h was -4.16%. As for `CCc1nnc2n1CCN(C(=O)C(C)Oc1cccc(C#N)c1)C2` (stereo not drawn), the cytotoxicity at 70.5 h was 12.9%.

On to `O=C(NCC1CC1)[C@H]1C[C@@H]2CN(C(=O)NCc3ccccc3)C[C@H]1O2`, for which the cytotoxicity at 70.5 h worked out at 11.4%. Next, `CCN1CCC(N[C@@H]2CC[C@@H]2NC(=O)Cc2csc(C)n2)CC1`: -1.08%.

For the compound `CN(C)C(CNS(=O)(=O)c1cnn(C)c1)c1cccc(F)c1` (stereo not drawn), the cytotoxicity at 70.5 h was -1.66%.

For `CCC(C)(NCC(=O)NC(=O)NC)c1nccs1` (stereo not drawn), the cytotoxicity at 70.5 h is -4.72%. The result for `CC(C)N1CCC2(CCNCC2)C1=O` reads -13%. The result for `Cc1nc(CN2CCCN(C(=O)C(C)OCC3CC3)CC2)cs1` (stereo not drawn) reads -8.36%; that for `COc1ccc(CNC(=O)NCc2c(C)cc(C)[nH]c2=O)cc1`, -11.9%. Next, `Cc1cccc(CN2CCC3(CC2)CN(c2cccnc2)C(=O)CO3)n1`: -4.77%; `c1ccc(-c2ccc3nc(C4CCN(CC5CC5)CC4)nn3c2)cc1`: -6.34%; `COc1ccc(CNC2CCCN(Cc3noc(C)n3)C2)cc1F` (stereo not drawn): 23.4%.

Regarding `Cc1csc(C2(NCC(O)COC(C)C)CCCC2)n1` (stereo not drawn), the cytotoxicity at 70.5 h was -11.4%. The result for `Cc1cc(CN(C)C(=O)Nc2cnc3c(c2)c(C)nn3C)no1` reads -8.11%.

Consider `CC(C)CNC(=O)c1cccc(Oc2ccc3nncn3n2)c1`, for which the cytotoxicity at 70.5 h was -9.71%.

Regarding `c1ccc(OCc2nnc3n2CCN(CC2CCOCC2)C3)nc1`, the cytotoxicity at 70.5 h is -0.459%.

Take `CO[C@@H]1CC[C@H]2[C@H]1OCCN2Cc1ccccn1`: the cytotoxicity at 70.5 h was found to be 18.3%.

Turning to `CC(C)N(Cc1cccc(Cl)c1)Cc1nnsc1Cl`, the cytotoxicity at 70.5 h is -2.95%.

Take `CN(C)S(=O)(=O)c1ccc2c(c1)N(Cc1nccn1C)CCC2`: the cytotoxicity at 70.5 h is -6.79%. The result for `CCSCc1ccc(C(=O)N2CCCN(CC)CC2)cc1` reads -10.3%; that for `c1ccc(-c2nnn3c2COC(CNCC2CC2)C3)cc1` (stereo not drawn), -0.253%. Next, `CCNC(=O)CCS(=O)(=O)Cc1ccn(-c2cccc(F)c2)n1`: 2.48%. On to `c1cnnc(-c2noc(CCN3CCCO3)n2)c1`, for which the cytotoxicity at 70.5 h was -10.9%. Consider `CCOc1ccc(CN(C)C(C)C(=O)Nc2cc(C)no2)cc1` (stereo not drawn), for which the cytotoxicity at 70.5 h is -5.64%.

In the case of `C/C(Cl)=C/CNC(=O)[C@H]1CC[C@]2(CC1)CN(C)C(=O)c1ccccc1O2`, the cytotoxicity at 70.5 h is -6.71%. Next, `CN(C)CCN(Cc1ccc(C#N)cc1)C(=O)c1ccn(C)c(=O)c1`: 24.8%. With `CCCNC(=O)C1CCN(CC(O)c2ccccc2)CC1` (stereo not drawn), the cytotoxicity at 70.5 h was -10.6%. The result for `O=C(C1CC1)N1CCCCCC1C1CCN(c2ncccn2)CC1` (stereo not drawn) reads -9.64%. Next, `CN(C)c1cc(C(=O)N2CCN(c3cnccn3)CC2)ccn1`: -13.9%. Next, `CNc1cc(N2CCC(O)(CNC(=O)c3ccc(C)nc3)C2)ncn1` (stereo not drawn): -6.58%; `Cc1ccc(CN2CCn3c(C(=O)N(C)C)cnc3C2)s1`: -20.4%; `Cc1nn(C(C)C)c(C)c1NC(=O)c1ccc(F)cc1`: -2.59%.

Take `CC(C)NC(=O)c1nc2c(s1)CCCN2c1ccccc1`: the cytotoxicity at 70.5 h stood at 5.99%. The result for `CC(=O)N[C@H]1CCO[C@@H](c2cccc(NC(=O)C(C)(C)C)c2)C1` reads -7.68%. The result for `N#Cc1cccnc1NCCC1CCN(CC(F)(F)F)CC1` reads -5%; that for `CN(C)Cc1ccc(C2CCCCN2C(=O)c2cc(C3CC3)n[nH]2)cc1` (stereo not drawn), -5%.

Consider `CCOc1ccc2[nH]c(=O)c(CN3CCCC(CO)(CO)C3)cc2c1`, for which the cytotoxicity at 70.5 h is -4.6%.

Take `Cc1ccc(CN2Cc3nccn3CC(CN(C)C)C2)s1` (stereo not drawn): the cytotoxicity at 70.5 h is -7.65%. The result for `Cc1csc(C2CCCN(C(=O)c3ccc(=O)n(C)n3)C2)n1` (stereo not drawn) reads -9.44%; that for `CC(C(=O)N1CCCN(Cc2ccc(C#N)cc2)CC1)n1cccn1` (stereo not drawn), 1.6%. The result for `COCC(=O)N1CCC(C(=O)Nc2ccc(S(N)(=O)=O)cc2)CC1` reads -7.49%. The result for `NC(=O)c1cnn2c1NCC(CNCCc1cccs1)C2` (stereo not drawn) reads -5.82%.
